Assays:
PDEδ [1] = target: T1, PDEδ (Homo sapiens (Human), UniProt O43924); assay: Fluorescence polarization competition binding assay: displacement titration of labeled Atorvastatin probe for KD; conditions: fluorescence polarization assay; activity classes; read-out: KD
Procedure: Example D.2: Displacement Titrations of Labeled Atorvastatin-Probe for the Determination of KD Values
Displacement Titrations of Labeled Atorvastatin-Probe for the Determination of KD Values:
The purification was followed by size exclusion gel filtration on a Superdex 75 S26/60 column using buffer A (25 mM Tris-HCl, pH 7.5, 150 mM NaCl and 3 mM DTE).

[2] = target: interaction between mCherry-PDE6δ and mCitrine-RheB (Homo sapiens (Human), UniProt O43924); assay: FLIM-FRET of mCitrine-RheB and mCherry-PDE6δ interaction in living MDCK cells; assay type: cell-based; conditions: fit of dose-response of interacting fraction α, ± s.e.m., read-out: apparent "in-cell" KD
[3] = tested on: mCitrine-KRas in MiaPaCa-2 cells; assay: KRas localization analysis by confocal microscopy; assay type: cell-based, human; conditions: 5 μM; MiaPaCa-2 cells ectopically expressing mCitrine-KRas
Procedure: Panc-TU-1, MiaPaCa-2, PANC-1 and BxPC-3 cell lines were cultured in DMEM supplemented with 10% fetal calf serum, 1% L-glutamine (PAN-Biotech) and 1% non-essential amino acids (PAN-Biotech). The cells were maintained in a humidified incubator at 37° C. and 5% CO2. For microscopy, cells were seeded in four-well Lab-Tek chambers (Thermo Scientific) in DMEM without phenol red, supplemented with 25 mM HEPES. Transfection was performed with either Effectene (Qiagen) or Lipofectamine 2000 (Invitrogen). Confocal images were acquired with a confocal laser-scanning microscope (FV1000, Olympus). For detection of mCitrine-RheB and mCitrine-KRas, the sample was excited using the 488 nm wavelength of an argon laser. Fluorescence signal was collected through an oil immersion objective (×60/1.35 UPlanSApo, Olympus) and spectrally filtered by a band pass filter from 500 nm to 550 nm. For detection of mCherry-PDEδ, a 561 nm diode laser was used for excitation. The fluorescence emission was spectrally filtered by a band pass filter from 600 to 700 nm. Confocal images of cells were segmented into plasma membrane and cytoplasm whereby the plasma membrane segment contained one third of all pixels. The mean intensity of plasma membrane and cytoplasm were normalized to the total mean intensity of each cell at each time point (FIG. 4C).

MiaPaCa-2 cells = assay: Real time cell analysis (RTCA) proliferation; assay type: cell-based, human
Procedure: (§1) Panc-TU-1, MiaPaCa-2, PANC-1 and BxPC-3 cell lines were cultured in DMEM supplemented with 10% fetal calf serum, 1% L-glutamine (PAN-Biotech) and 1% non-essential amino acids (PAN-Biotech). The cells were maintained in a humidified incubator at 37° C. and 5% CO2. For microscopy, cells were seeded in four-well Lab-Tek chambers (Thermo Scientific) in DMEM without phenol red, supplemented with 25 mM HEPES. Transfection was performed with either Effectene (Qiagen) or Lipofectamine 2000 (Invitrogen). RTCA measurements of Panc-TU-1, MiaPaCa-2, PANG-1 and BxPC-3 cell lines were performed on a Dual Plate xCELLigence instrument (Roche Applied Science, Indianapolis, Ind.). This device measures a dimensionless cell index which is based on impedance. […] After seeding, cells were allowed to settle for 15 min at room temperature before insertion into the xCELLigence instrument in a humidified incubator at 37° C. with 5% CO2. […] The impedance was measured in 15 min intervals for up to 100 h. Assays were performed in triplicates, each containing two technical duplicates. The cell index was normalized to 1 at the time point of drug administration.

Panc-Tu-I cells = assay: Real time cell analysis (RTCA) proliferation; assay type: cell-based, human
Procedure: as §1

[4] = tested on: colorectal cancer cell lines DiFi, HCT-116, Hke3, Hkh2, HT29 and SW480; assay: Real time cell analysis (RTCA) proliferation of colorectal cancer cell lines; assay type: cell-based, human
[5] = tested on: colorectal cancer cell lines (HCT-116, Hke3, SW480, Hkh2, DiFi, HT29); assay: Apoptosis / cell viability assay (7-AAD staining, flow cytometry); assay type: cell-based, human; conditions: all tested cell lines (Hkh2, DiFi, HT29)
Procedure: Apoptosis assays are performed on a LSR II flow cytometer (BD Bio-science). For this, cells are seeded in 6-well plates with an amount of 2×10^5 cells per well. Cells are treated with different concentrations of compound 19 (Deltasonamide 2) for 24 h. DMSO is used as a control. Subsequently, the supernatant is collected in FACS vials and the cells are washed with 1 mL PBS. Afterwards, cells are detached with 0.5 mL Accutase™ (EMD Millipore Corporation). The detached cells are resuspended in 1 mL PBS and transferred to the respective FACS vials. The vials are centrifuged at 200 g for 5 min. The supernatant is discarded and the cells are washed twice with PBS. Cell pellets are re-suspended in 100 μL PBS containing 5 μL of 7-AAD. Samples are vortexed and incubated in the dark at RT for 15 min. Afterwards, 200 μL PBS are added and the samples are transferred to fresh FACS vials through filter lids. The samples are measured within one hour after transfer using 488 nm as excitation wave length and the emission filter 695/40. The measurements are acquired and gated with the BD FACSDiva™ software.

[6] = tested on: human peripheral blood mononuclear cells (hPMPBC); assay: Cytotoxicity assay with human peripheral blood mononuclear cells; assay type: cell-based
Procedure: Cells were incubated with test substances at titrated concentrations ranging between 30 μM and 1.7 nM for 72 h. After the incubation period, the cells were fixed with 10% (wt/vol) trichloroacetic acid and stained for 30 min with sulforhodamine B (SRB) staining solution prior to removing unbound dye by washing repeatedly with 1% (vol/vol) acetic acid. The protein-bound dye is dissolved in 10 mM Tris base solution for OD (optical density) determination at 510 nm using a microplate reader.

in vitro = conditions: human, Caco-2, pH 6.5
Procedure: Caco-2 Permeability Assay:
The compound concentration was measured in the receiver as well as the donor well.

PDEδ [7] = target: T1, PDEδ; assay: Cellular thermal shift assay / thermal protein profiling in Jurkat cell lysate; conditions: 1 μM
[8] = target: RPL31 (Ribosomal Protein L31) (Homo sapiens (Human), UniProt P62899); assay: as above; conditions: read-out: shift in melting temperature
[9] = even at submicromolar concentrations

CNc1nccc(CN([C@H]2CC[C@H](N)CC2)S(=O)(=O)c2ccc(S(=O)(=O)N(Cc3ccc(Cl)cc3)C3CCCC3)cc2)n1 [Compound 19, N1-((trans)-4-aminocyclohexyl)-N4-(4-chlorobenzyl)-N4-cyclopentyl-N1-((2-(methylamino)pyrimidin-4-yl)methyl)benzene-1,4-disulfonamide]
Kd (PDEδ [1]): 1 to 30 nM
Kd [2]: 61 ± 5 nM
KRas plasma membrane localization [3]: loss of KRas plasma membrane (PM) localization
reduction of growth rate (MiaPaCa-2 cells; at 750 nM): about 50%
proliferation (RTCA) (MiaPaCa-2 cells; [9]): strongly reduced proliferation
reduction of growth (Panc-Tu-I cells; at 1.5 μM): about 50%
proliferation (RTCA) (Panc-Tu-I cells; [9]): strongly reduced proliferation
proliferation (RTCA) ([4]; DiFi, HCT-116, Hke3, Hkh2, HT29 and SW480, even at lower micromolar concentrations): strongly reduced proliferation
concentrations showing growth inhibitory effect and reduced cell viability ([4]; cell lines containing oncogenic KRas mutations (HCT-116, Hke3, and SW480)): 1.5 to 3 µM
concentration showing unspecific toxicity [5]: above 6 μM
concentration up to which hPMBCs proliferation is not impaired [6]: ≥ 30 µM
Papp A→B at 2 h, 10 µM (in vitro): 0.9 ×10⁻⁶ cm/s
Papp B→A at 2 h, 10 µM (in vitro): 2.7 ×10⁻⁶ cm/s
efflux ratio at 2 h, 10 μM (in vitro): 2.9

Nc1cc(CN(CC2CCNCC2)S(=O)(=O)c2ccc(S(=O)(=O)N(Cc3ccc(Cl)cc3)C3CCCC3)cc2)ccc1C(=O)O [Compound 22, 2-amino-4-(((4-(N-(4-chlorobenzyl)-N-cyclopentylsulfamoyl)-N-(piperidin-4-ylmethyl)phenyl)sulfonamido)methyl)benzoic Acid]
Kd (PDEδ [1]): 1 to 30 nM
Papp A→B at 2 h, 10 µM (in vitro): 0.9 ×10⁻⁶ cm/s
Papp B→A at 2 h, 10 µM (in vitro): 0.6 ×10⁻⁶ cm/s
efflux ratio at 2 h, 10 μM (in vitro): 0.6
selectivity of protein engagement (only PDE6δ and RPL31 engaged) (PDEδ [7]; 5492 proteins identified): very selective inhibitor
higher signal intensities of soluble PDEδ compared to DMSO controls (PDEδ [7]; […]): 26-28%
ΔTm at 1 µM [8]: 3 °C
